Results published in patent US20160304957A1, “TREATMENT AND MODULATION OF GENE EXPRESSION AND SKIN AGING” (DSM NUTRITIONAL PRODUCTS LTD., priority 2006, published 2016).

Experiments:
Assay type in all cases: cell-based, human
MMP-1 [1] = experiment: ELISA of MMP-1 release into cell culture supernatant of HaCaT cells; details: 1, 10, or 100 nM RA; unpublished observations
Procedure: HaCaT cells were supplemented with 0.5, 1.5, or 3 μM β-carotene for 2 days prior to UVA (270 kJ/m^2) irradiation. MMP-1 and TIMP-1 secretion 24 hours after irradiation was analyzed by ELISA. Each condition was represented by three replicates in the experiment. Values are means±standard error.
Release of MMP-1, and TIMP-1 into cell culture supernatant was determined by ELISA at 24 hours after irradiation. MMP-1 and TIMP-1 release was measured using MMP-1 and TIMP ELISA from CALBIOCHEM (San Diego, Calif., USA). The ELISAs were performed according to the manufacturer's instructions.

MMP-3 = experiment: QRT-PCR gene expression in HaCaT cells with or without UVA
Procedure: (§1) HaCaT cells were obtained from Prof. Fusenig, German Cancer Research Centre, Heidelberg. […] The accuracy of cell counting was approximately 99%.
(§2) On day 3 of the experiment, cells were washed six times with Ca/Mg-free PBS containing 2% BSA, and then irradiated with light with a Hönle sun lamp Sol 500 (Dr. Hönle, Plannegg, Germany) at a dose of 270 kJ/m^2 in Ca/Mg-free PBS (2 hour exposure time at […]). The experimental schedule was chosen because the cells had optimal UVA sensitivity after 48 hours in culture. […] Confluent cultures were much less sensitive to irradiation.
(§3) After irradiation, the cells were supplied with fresh β-carotene-containing serum-free medium and kept in the incubator at 37° C., 5% CO2 until harvest of the samples. In experiments in which the half-life of ^1O2 was prolonged by D2O to enhance its effect, PBS was prepared in D2O, instead of in H2O, as it was done for the standard conditions described above. Cells were washed twice in D2O-PBS prior to irradiation in D2O-PBS. After irradiation, cells were maintained with fresh β-carotene-containing serum-free medium. Sham controls were treated in an identical manner, by placing them under the solar simulator but shielded from light.
(§4) Total RNA was isolated by using Trizol™ (Invitrogen, Basel, Switzerland) according to the instructions of the manufacturer. Random-primed cDNA was synthesized using the Superscript pre-amplification system for first strand cDNA synthesis (Invitrogen).
(§5) cDNA corresponding to 10 ng total RNA was used as template to quantify the relative RNA expression of the genes of interest by TaqMan® real time PCR.
(§6) The PCR analyses were carried out in triplicate and in a multiplex setup, using 18S rRNA as a calibrator gene. The rRNA primers were used at a final concentration of 50 nM, the probe at 100 nM. For quantification of the genes of interest, the primer concentrations were optimized for sensitivity of template detection. […] PCR reactions were carried out for 40 cycles of 95° C. for 15 seconds and 60° C. for 1 minute in an ABI7700 (Applied Biosystems, Rotkreuz, Switzerland). Regulation of gene expression was calculated as described in user bulletin #2 provided by the manufacturer. A threshold cycle (“CT”) is the first PCR cycle in which an amplification signal is detected. Expression levels are given as δCT values. The δCT value describes the level of gene expression as the average PCR cycle, in which the gene of interest was detected first (CT value), subtracted by the CT value of the calibrator gene 18S rRNA (CTgene of interest−CTcalibrating gene), 18S rRNA served as a measure for the amount of template in the reaction. Routinely, 18S rRNA was detected between PCR cycle 12 and 13 (SE=standard error) A low δCT corresponds to a high mRNA level.

MMP-10 = experiment: as above
Procedure: as §1, §2, §3, §4, §5, §6

MMP-1 [2] = experiment: as above
Procedure: as §1, §2, §3, §4, §5, §6

TIMP-1 = experiment: as above; details: vitamin E 50 μM
Procedure: as §1
Vitamin E (RRR-α-tocopherol; DSM Nutritional Products, Kaiseraugst, Switzerland) stock solutions and vitamin E-containing media were prepared as described for β-carotene-containing solutions, except that vitamin E was dissolved in ethanol. In experiments addressing the vitamin E effect, vitamin E was used in a final concentration of 50 μM. Again, the solvent concentration was kept constant at 0.03% ethanol for all conditions.
On day 3 of the experiment, cells were washed six times with Ca/Mg-free PBS containing 2% BSA, and then irradiated with light with a Hönle sun lamp Sol 500 (Dr. Hönle, Plannegg, Germany) at a dose of 270 kJ/m^2 in Ca/Mg-free PBS (2 hour exposure time at […]). The experimental schedule was chosen because the cells had optimal UVA sensitivity after 48 hours in culture. […] Confluent cultures were much less sensitive to irradiation. […]
as §5
The PCR analyses were carried out in triplicate and in a multiplex setup, using 18S rRNA as a calibrator gene. […] For quantification of the genes of interest, the primer concentrations were optimized for sensitivity of template detection. […] Regulation of gene expression was calculated as described in user bulletin #2 provided by the manufacturer. A threshold cycle (“CT”) is the first PCR cycle in which an amplification signal is detected. […] The δCT value describes the level of gene expression as the average PCR cycle, in which the gene of interest was detected first (CT value), subtracted by the CT value of the calibrator gene 18S rRNA (CTgene of interest−CTcalibrating gene), 18S rRNA served as a measure for the amount of template in the reaction. Routinely, 18S rRNA was detected between PCR cycle 12 and 13 (SE=standard error) A low δCT corresponds to a high mRNA level.

[3] = vitamin E 50 μM with β-carotene 1.5 μM

Structure (SMILES)	UVA-induced MMP-1 secretion (MMP-1 [1])	cooperation with β-carotene in reducing UVA-induction of MMP-3 (MMP-3; [3])	MMP-3 expression (MMP-3; vitamin E alone, 50 μM)	cooperation with β-carotene in reducing UVA-induction of MMP-10 (MMP-10; [3])	MMP-10 expression (MMP-10; vitamin E alone, 50 μM)	cooperation with β-carotene in reducing UVA-induction of MMP-1 (MMP-1 [2]; [3])	MMP-1 expression (MMP-1 [2]; vitamin E alone, 50 μM)	UVA-suppressed TIMP-1 expression (TIMP-1)
CC1=C(/C=C/C(C)=C/C=C/C(C)=C/C(=O)O)C(C)(C)CCC1 [RA, retinoic acid]	no effect							
Cc1c(C)c2c(c(C)c1O)CC[C@@](C)(CCC[C@H](C)CCC[C@H](C)CCCC(C)C)O2 [vitamin E, RRR-α-tocopherol]		did not cooperate	no effect	did not cooperate	no effect	did not cooperate	no effect	restored
